# Patent US20240158446A1, “CYCLIC COMPOUND HAVING SELECTIVE INHIBITORY ACTION ON KRAS OVER HRAS AND NRAS” (CHUGAI SEIYAKU KABUSHIKI KAISHA, priority 2021, published 2024)
# Where two headings read alike, the source gives them in different places. *1 amine or outer side, *2 acyl side, *3 side chain or, on linkers, in order; H or OH if unused. Where a SMILES comes first, the peptide text is derived from it. Bridges are numbered along the chain shown (N, C = ends). [ ]: non-standard residue; d: D form. The star is where a group is joined. hPhe(3-Cl-4-CF3) = N[C@@H](CCc1ccc(C(F)(F)F)c(Cl)c1)C(=O)O; NPrPhe(4-CF3) = CCCN[C@@H](Cc1ccc(C(F)(F)F)cc1)C(=O)O; X41 = Cc1ccc(C[C@@H](C(=O)[*:2])N(CC2CCCCC2)[*:1])cc1; NMeGly(cPent) = CN[C@H](C(=O)O)C1CCCC1; Hyp = O=C(O)[C@@H]1C[C@@H](O)CN1; NMeD = CN[C@@H](CC(=O)O)C(=O)O; NMeL = CN[C@@H](CC(C)C)C(=O)O; Morpholide = C1CN(*)CCO1; NMeA = CN[C@@H](C)C(=O)O; Ac5c = NC1(C(=O)O)CCCC1; Aze = O=C(O)[C@@H]1CCN1; Ac4c = NC1(C(=O)O)CCC1; Sar = CNCC(=O)O
# Tests used:
# [1] = target: GDP-bound HRAS wild-type protein (Homo sapiens, UniProt P01112); test: Binding to HRAS by surface plasmon resonance (SPR), Single Cycle Kinetics; conditions: SPR, GDP-bound HRAS wild-type protein vs GDP-bound KRAS wild-type protein
# Sequence of GDP-bound HRAS wild-type protein (P01112 whole entry): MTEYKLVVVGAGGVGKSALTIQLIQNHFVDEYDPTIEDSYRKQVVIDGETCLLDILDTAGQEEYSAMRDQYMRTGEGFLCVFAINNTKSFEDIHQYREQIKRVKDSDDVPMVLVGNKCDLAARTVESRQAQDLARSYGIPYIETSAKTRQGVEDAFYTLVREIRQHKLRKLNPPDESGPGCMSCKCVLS
# [2] = target: GDP-bound KRAS wild-type protein (Homo sapiens, UniProt P01116); test: Binding to KRAS by surface plasmon resonance (SPR), Single Cycle Kinetics; conditions: GDP-bound KRAS wild-type protein, read-out: KRAS KD
# Sequence of GDP-bound KRAS wild-type protein (P01116 whole entry): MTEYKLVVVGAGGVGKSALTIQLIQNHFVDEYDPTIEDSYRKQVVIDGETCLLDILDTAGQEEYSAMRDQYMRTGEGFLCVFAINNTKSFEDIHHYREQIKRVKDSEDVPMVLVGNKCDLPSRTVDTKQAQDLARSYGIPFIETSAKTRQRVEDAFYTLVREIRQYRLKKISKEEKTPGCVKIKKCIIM
# [3] = target: GDP-bound NRAS wild-type protein (Homo sapiens, UniProt P01111); test: Binding to NRAS by surface plasmon resonance (SPR), Single Cycle Kinetics; conditions: SPR, GDP-bound NRAS wild-type protein vs GDP-bound KRAS wild-type protein
# Sequence of GDP-bound NRAS wild-type protein (P01111 whole entry): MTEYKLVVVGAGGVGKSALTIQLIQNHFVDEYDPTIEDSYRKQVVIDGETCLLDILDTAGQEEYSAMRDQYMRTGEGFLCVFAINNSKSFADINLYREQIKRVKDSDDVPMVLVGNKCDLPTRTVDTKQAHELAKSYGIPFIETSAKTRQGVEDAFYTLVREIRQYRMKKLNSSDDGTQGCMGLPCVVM
# [4] = SPR Single Cycle Kinetics, 1:1 binding model
# [5] = SPR, Single Cycle Kinetics, 1:1 binding model
SMILES,"Kd ([2]; SPR, Single Cycle Kinetics)","Kd [2, 4]",HRAS/KRAS (ratio of KD value for HRAS to KD value for KRAS) [1],NRAS/KRAS (ratio of KD value for NRAS to KD value for KRAS) [3],other results
CCC[C@H]1C(=O)N[C@@H]([C@@H](C)CC)C(=O)N(C)CC(=O)N(C)[C@H]2C/C=C\CCN(C2=O)[C@@H](Cc2ccc(C(F)(F)F)cc2)C(=O)N(C)CC(=O)N[C@@H](CCc2ccc(C(F)(F)F)c(OC)c2)C(=O)N2C[C@H](OCC)C[C@H]2C(=O)NC2(CC(C)(C)C2)C(=O)N(C)[C@@H](C(CC)CC)C(=O)N(C)[C@H](C(=O)N(C)C)CC(=O)N1C [PP2160],0.22 nM,–,A (a compound having 10 or more and less than 20 is denoted as A),A (a compound having 10 or more and less than 20 is denoted as A),–
CCOC[C@H]1C(=O)N[C@@H]([C@@H](C)CC)C(=O)N(C)CC(=O)N(C)[C@H]2C/C=C\CCN(C2=O)[C@@H](Cc2ccc(C(F)(F)F)cc2)C(=O)N(C)CC(=O)N[C@@H](CCc2cc(F)c(C(F)(F)F)c(F)c2)C(=O)N2C[C@@H](C)C[C@H]2C(=O)NC2(CC(C)(C)C2)C(=O)N(C)[C@@H](C2CCCC2)C(=O)N(C)[C@H](C(=O)N(C)CC)CC(=O)N1C [PP2042],0.14 nM,–,A (a compound having 10 or more and less than 20 is denoted as A),A (a compound having 10 or more and less than 20 is denoted as A),–
CC[C@H](C)[C@@H]1NC(=O)[C@H](CC(C)C)N(C)C(=O)C[C@@H](C(=O)N2CCOCC2)N(C)C(=O)[C@H](C2CCCC2)N(C)C(=O)C2(CCCC2)NC(=O)[C@@H]2CCCN2C(=O)[C@H](CCc2ccc(C(F)(F)F)c(Cl)c2)NC(=O)CN(C)C(=O)[C@H](Cc2ccc(C)cc2)N(CC2CCCCC2)C(=O)[C@@H]2CCN2C(=O)[C@H](C)N(C)C1=O [PP0085] ([NMeL]I[NMeA][Aze][X41][Sar][hPhe(3-Cl-4-CF3)]P[Ac5c][NMeGly(cPent)][NMeD]-Morpholide; lactam N-11),–,8.4 nM,C (A compound having a KD ratio of 0.1 or more and less than 3 is denoted as C),C (A compound having a KD ratio of 0.1 or more and less than 3 is denoted as C),–
CCCN1C(=O)CN(C)C(=O)CN(C)C(=O)[C@H]([C@@H](C)CC)NC(=O)[C@H](CC(C)C)N(C)C(=O)C[C@@H](C(=O)N2CCOCC2)N(C)C(=O)[C@H](C2CCCC2)N(C)C(=O)C2(CCC2)NC(=O)[C@@H]2C[C@@H](OCC)CN2C(=O)[C@H](CCc2ccc(C(F)(F)F)c(Cl)c2)NC(=O)CN(C)C(=O)[C@@H]1Cc1ccc(C(F)(F)F)cc1 [PP0392] ([NMeL]I[Sar][Sar][NPrPhe(4-CF3)][Sar][hPhe(3-Cl-4-CF3)][Hyp](Et)[Ac4c][NMeGly(cPent)][NMeD]-Morpholide; lactam N-11),–,0.067 nM,C (A compound having a KD ratio of 0.1 or more and less than 3 is denoted as C),B (a compound having 3 or more and less than 10 is denoted as B),–
CCO[C@@H]1C[C@H]2C(=O)NC3(CCC3)C(=O)N(C)[C@@H](C3CCCC3)C(=O)N(C)[C@H](C(=O)N(C)C)CC(=O)N(C)[C@@H](CC(C)C)C(=O)N[C@@H]([C@@H](C)CC)C(=O)N(C)CC(=O)N(C)[C@H]3C/C=C\CCN(C3=O)[C@@H](Cc3ccc(F)cc3C)C(=O)N(C)CC(=O)N[C@@H](CCc3cc(F)c(C(F)(F)F)c(F)c3)C(=O)N2C1 [PP1532],–,–,–,–,"HRAS/KRAS (ratio of KD value for HRAS to KD value for KRAS) ([1]; KD ratio class): B (a compound having 3 or more and less than 10 is denoted as B); Kd [2, 5]: 0.19 nM; NRAS/KRAS (ratio of KD value for NRAS to KD value for KRAS) ([3]; KD ratio class): A (a compound having 10 or more and less than 20 is denoted as A)"
CCO[C@@H]1C[C@H]2C(=O)NC3(CC(C)(C)C3)C(=O)N(C)[C@@H](C(CC)CC)C(=O)N(C)[C@H](C(=O)N(C)C)CC(=O)N(C)[C@@H](CC)C(=O)N[C@@H]([C@@H](C)CC)C(=O)N(C)CC(=O)N(C)[C@H]3C/C=C\CCN(C3=O)[C@@H](Cc3ccc(C)cc3)C(=O)N(C)CC(=O)N[C@@H](CCc3ccc(Cl)c(Cl)c3)C(=O)N2C1 [PP2188],0.71 nM,–,A (a compound having 10 or more and less than 20 is denoted as A),AA (a compound having 20 or more is denoted as AA),–
CC[C@H](C)[C@@H]1NC(=O)[C@H](CC(C)C)N(C)C(=O)C[C@@H](C(=O)N2CCOCC2)N(C)C(=O)[C@H](C2CCCC2)N(C)C(=O)C2(CCCC2)NC(=O)[C@@H]2CCCN2C(=O)[C@H](CCc2ccc(C(F)(F)F)c(Cl)c2)NC(=O)CN(C)C(=O)[C@H](Cc2ccc(C(F)(F)F)cc2)N2CC=CC[C@@H](C2=O)N(C)C(=O)CN(C)C1=O [PP0462],–,0.32 nM,–,–,HRAS/KRAS (ratio of KD value with respect to HRAS to KD value with respect to KRAS) [1]: C (A compound having a KD ratio of 0.1 or more and less than 3 is denoted as C); NRAS/KRAS (ratio of KD value with respect to NRAS to KD value with respect to KRAS) [3]: C (A compound having a KD ratio of 0.1 or more and less than 3 is denoted as C)
CCO[C@@H]1C[C@H]2C(=O)NC3(CC(C)(C)C3)C(=O)N(C)[C@@H](C3CCCC3)C(=O)N(C)[C@H](C(=O)N(C)CC)CC(=O)N(C)[C@@H](CC)C(=O)N[C@@H]([C@@H](C)CC)C(=O)N(C)CC(=O)N(C)[C@H]3C/C=C\CCN(C3=O)[C@@H](Cc3ccc(C(F)(F)F)cc3)C(=O)N(C)CC(=O)N[C@@H](CCc3cc(F)c(C(F)(F)F)c(F)c3)C(=O)N2C1 [PP1579],–,–,–,–,"HRAS/KRAS (ratio of KD value for HRAS to KD value for KRAS) ([1]; KD ratio class): B (a compound having 3 or more and less than 10 is denoted as B); Kd [2, 5]: 0.087 nM; NRAS/KRAS (ratio of KD value for NRAS to KD value for KRAS) ([3]; KD ratio class): A (a compound having 10 or more and less than 20 is denoted as A)"
CCC[C@H]1C(=O)N[C@@H](C2CCCC2)C(=O)N(C)CC(=O)N(C)[C@H]2C/C=C\CCN(C2=O)[C@@H](Cc2ccc(C(F)(F)F)cc2)C(=O)N(C)CC(=O)N[C@@H](CCc2ccc(C(F)(F)F)c(Cl)c2)C(=O)N2C[C@H](OCC)C[C@H]2C(=O)NC2(CC(C)(C)C2)C(=O)N(C)[C@@H](C2CCCC2)C(=O)N(C)[C@H](C(=O)N(C)C)CC(=O)N1C [PP2984],0.2 nM,–,B (a compound having 3 or more and less than 10 is denoted as B),A (a compound having 10 or more and less than 20 is denoted as A),–
CCCN1C(=O)[C@@H]2CCN2C(=O)[C@H](C)N(C)C(=O)[C@H]([C@@H](C)CC)NC(=O)[C@H](CC(C)C)N(C)C(=O)C[C@@H](C(=O)N2CCOCC2)NC(=O)[C@H](C2CCCC2)N(C)C(=O)C2(CCC2)NC(=O)[C@@H]2C[C@@H](OCC)CN2C(=O)[C@H](CCc2ccc(C(F)(F)F)c(Cl)c2)NC(=O)CN(C)C(=O)[C@@H]1Cc1ccc(C(F)(F)F)cc1 [PP0348] ([NMeL]I[NMeA][Aze][NPrPhe(4-CF3)][Sar][hPhe(3-Cl-4-CF3)][Hyp](Et)[Ac4c][NMeGly(cPent)]D-Morpholide; lactam N-11),–,0.38 nM,B (a compound having 3 or more and less than 10 is denoted as B),C (A compound having a KD ratio of 0.1 or more and less than 3 is denoted as C),–
CCO[C@@H]1C[C@H]2C(=O)NC3(CCC(F)(F)CC3)C(=O)N(C)[C@@H](C3CCCC3)C(=O)N(C)[C@H](C(=O)N(C)C)CC(=O)N(C)[C@@H](C)C(=O)N[C@@H]([C@@H](C)CC)C(=O)N(C)CC(=O)N(C)[C@H]3CCCCCN(C3=O)[C@@H](Cc3ccc(C(F)(F)F)cc3)C(=O)N(C)CC(=O)N[C@@H](CCc3cc(F)c(C(F)(F)F)c(F)c3)C(=O)N2C1 [PP0725],–,5 nM,–,–,HRAS/KRAS (ratio of KD value with respect to HRAS to KD value with respect to KRAS) [1]: B (a compound having 3 or more and less than 10 is denoted as B); NRAS/KRAS (ratio of KD value with respect to NRAS to KD value with respect to KRAS) [3]: B (a compound having 3 or more and less than 10 is denoted as B)

# The next lines start with results.
"Kd ([2]; SPR, Single Cycle Kinetics)","Kd [2, 4]",SMILES,HRAS/KRAS (ratio of KD value for HRAS to KD value for KRAS) [1],NRAS/KRAS (ratio of KD value for NRAS to KD value for KRAS) [3],other results
–,0.043 nM,CCCN1C(=O)CN(C)C(=O)CN(C)C(=O)[C@H]([C@@H](C)CC)NC(=O)[C@H](CC(C)C)N(C)C(=O)C[C@@H](C(=O)N(C)C)N(C)C(=O)[C@H](C2CCCC2)N(C)C(=O)C2(CCC2)NC(=O)[C@@H]2CCCN2C(=O)[C@H](CCc2ccc(C(F)(F)F)c(Cl)c2)NC(=O)CN(C)C(=O)[C@@H]1Cc1ccc(C(F)(F)F)cc1 [PP0412] ([NMeL]I[Sar][Sar][NPrPhe(4-CF3)][Sar][hPhe(3-Cl-4-CF3)]P[Ac4c][NMeGly(cPent)][NMeD]-NMe2; lactam N-11),–,–,HRAS/KRAS (ratio of KD value with respect to HRAS to KD value with respect to KRAS) [1]: C (A compound having a KD ratio of 0.1 or more and less than 3 is denoted as C); NRAS/KRAS (ratio of KD value with respect to NRAS to KD value with respect to KRAS) [3]: B (a compound having 3 or more and less than 10 is denoted as B)
0.12 nM,–,CC[C@H](C)[C@@H]1NC(=O)[C@H](CC(C)C)N(C)C(=O)C[C@@H](C(=O)N(C)C)N(C)C(=O)[C@H](C2CCCC2)N(C)C(=O)C2(CCCC2)NC(=O)[C@@H]2C[C@H](C)CN2C(=O)[C@H](CCc2cc(F)c(C(F)(F)F)c(F)c2)NC(=O)CN(C)C(=O)[C@H](Cc2ccc(C(F)(F)F)cc2)N2CC/C=C\C[C@@H](C2=O)N(C)C(=O)CN(C)C1=O [PP2268],A (a compound having 10 or more and less than 20 is denoted as A),A (a compound having 10 or more and less than 20 is denoted as A),–
–,0.18 nM,CC[C@H](C)[C@@H]1NC(=O)[C@H](CC(C)C)N(C)C(=O)C[C@@H](C(=O)N2CCOCC2)N(C)C(=O)[C@H](C2CCCC2)N(C)C(=O)C2(CCOCC2)NC(=O)[C@@H]2CCCN2C(=O)[C@H](CCc2cc(F)c(C(F)(F)F)c(F)c2)NC(=O)CN(C)C(=O)[C@H](Cc2ccc(C(F)(F)F)cc2)N2CCCC[C@@H](C2=O)N(C)C(=O)CN(C)C1=O [PP0564],–,–,HRAS/KRAS (ratio of KD value with respect to HRAS to KD value with respect to KRAS) [1]: B (a compound having 3 or more and less than 10 is denoted as B); NRAS/KRAS (ratio of KD value with respect to NRAS to KD value with respect to KRAS) [3]: B (a compound having 3 or more and less than 10 is denoted as B)
